Tests used:
embryonic DRG explants = assay: Axonal growth and Schwann cell expansion in embryonic DRG explants; format: cell-based, Wistar rat
Protocol: In vitro experiments with an imidazotriazinone to improve axonal growth and Schwann cell expansion in embryonic DRG explants of rats.
Outgrowth studies with 7-(4-tert-butylcyclohexyl)-5-ethyl-2-phenylimidazo[5,1-f][1,2,4]triazin-4(3H)-one or the vehicle were performed on embryonic neural tissue. DRGs of thoracic, lumbar, and sacral levels were prepared from Wistar rat embryos E18-20 and processed in ice cold 0.6% glucose in PBS. Harvested DRGs were freed from attaching nerve fibres, dissected, and transferred onto poly-D-lysine- and laminin-coated glass coverlips. To avoid cluster formation, a maximum of two DRG explants was transferred onto a single glass coverslip. Following an initial attachment phase, the pre-incubation medium was replaced by fully supplemented growth medium spiked with the test item (7-(4-tert-butylcyclohexyl)-5-ethyl-2-phenylimidazo[5,1-f][1,2,4]triazin-4(3H)-one groups 2 and 3) or vehicle (DMF, group 1) and incubated at 37° C./10% CO2 for additional 22 hours in vitro. Following 22 hours in vitro, the DRG explants were fluorescently labelled and axonal growth and Schwann cell expansion were quantitatively assessed.
The following experimental groups were included into the study: • Fully supplemented growth medium with 0.1% vehicle. • Fully supplemented growth medium with 0.1% vehicle and 7-(4-tert-butylcyclohexyl)-5-ethyl-2-phenylimidazo[5,1-f][1,2,4]triazin-4(3H)-one at a final concentration of 0.01 μM. • Fully supplemented growth medium with 0.1% vehicle and 7-(4-tert-butylcyclohexyl)-5-ethyl-2-phenylimidazo[5,1-f][1,2,4]triazin-4(3H)-one at a final concentration of 0.1 μM. • Fully supplemented growth medium with 0.1% vehicle and 7-(4-tert-butylcyclohexyl)-5-ethyl-2-phenylimidazo[5,1-f][1,2,4]triazin-4(3H)-one at a final concentration of 1 μM.

[1] = system: severe spinal cord contusion injury; assay: BBB open field locomotor rating scale after severe spinal cord contusion injury, intrathecal treatment; format: in vivo, Lewis rats
Protocol: Intrathecal treatment with a imidazotriazinone after severe spinal cord contusion injury in the rat.
(§1) Thirteen week-old female Lewis rats (Charles River, Sulzfeld Germany) were housed under a 12:12 h dark/light regime and allowed free access to water and food. After one week of habituation the animals underwent general anesthesia with a mixture of isoflurane and air (induction: 5% isoflurane, maintenance: 2.2% isofluorane). A T8 laminectomy was performed without rupturing the dura and a severe contusive SCI (25 gcm NYU/MASCIS II impactor) {Gruner, 1992 #3} was induced. Thereafter, the surgery continued with the procedure to position the silicon tube intrathecal catheter (7740, Alzet). Firstly, the catheter was filled with either the active or the vehicle solution. Secondly, another laminectomy was performed, again without rupturing the dura, at T11. At this position a small incision was made into the dura and the catheter was inserted at thoracic level 11 and pushed forward under lamina of T10-T9 to the lesion site at T8. […]
(§2) The BBB Open Field Locomotor Rating Scale: • The BBB locomotor rating scale was used to assess general locomotor performance (Basso et al., 1995). The score was assessed before injury and at 1, 3, 5, 7, 14, 21, 35, 42, 49, 56 and 63 days post operation (dpo) by 2 blinded observers.

[2] = system: severe spinal cord contusion injury; assay: Explorative rearing test after severe spinal cord contusion injury, intrathecal treatment; format: in vivo, Lewis rats; details: intrathecal 100 μM over 14 days
Protocol: as §1, with “T8. The catheter was then cut at the appropriate length and connected to a filled osmotic minipump (Alzet, model 2002) which was placed subcutaneously. The overlying tissue was sutured, and a subcutaneous (s.c.) injection of 5 ml of Ringers Lactate was given. The different solutions (active or vehicle) were infused at a flow rate of 0.5 μl/h over a time period of 14 days.” for “T8.”
When placed in a Plexiglas cylinder (18 cm diameter×35.0 cm height), animals spontaneously rear and contact the walls with their forepaws. Numbers, duration and types of rears were analyzed during the 3-min recorded observation period in the cylinder (Himes et al., 2006; Shumsky et al., 2003). […] The testing session was videotaped, and rearing behaviour was scored blindly at a later date. […]
Occasionally an animal progressed through several types of rears before touching down, in which case the time the animal spend in each rearing height was measured by counting the single video frames. Data were expressed as number of attempts (rears), attempt duration and the time each animal spend in the different rearing heights.

[3] = system: severe spinal cord contusion injury; assay: BBB open field locomotor rating scale after severe spinal cord contusion injury, oral treatment; format: in vivo, Lewis rats
Protocol: as §2
Oral Treatment with a Imidazotriazinone after Severe Spinal Cord Contusion Injury in the Rat.
Thirteen week-old female Lewis rats (Charles River, Sulzfeld Germany) were housed under a 12:12 h dark/light regime and allowed free access to water and food. After one week of habituation the animals underwent general anesthesia with a mixture of isoflurane and air (induction: 5% isoflurane, maintenance: 2.2% isofluorane). A Th10 laminectomy was performed without rupturing the dura and a severe contusive SCI (25 gcm NYU/MASCIS II impactor) (Gruner, 1992) was induced. After suturing muscle and skin, a subcutaneous (s.c.) injection of 5 ml of Ringers Lactate was given. Bladders were emptied manually 2 times a day until spontaneous voiding returned (usually within 1 week). The lesion severity was verified by the impact velocity and contusion depth of the impactor rod. Animals with an impact velocity error >5% were excluded from further analysis. After injury, individual rats were randomly assigned into a treatment group. The following groups were used: […]

[4] = tested 0.01, 0.1 and 1 μM, 22 hours in vitro
[5] = compared to vehicle control animals (FIG. 3)

CCc1nc(C2CCC(C(C)(C)C)CC2)n2nc(-c3ccccc3)[nH]c(=O)c12 (stereo not drawn) [7-(4-tert-butylcyclohexyl)-5-ethyl-2-phenylimidazo[5,1-f][1,2,4]triazin-4(3H)-one]
Schwann cell numbers compared to vehicle-treated cultures (embryonic DRG explants; 0.01-1 μM, 22 hours in vitro): increased nearly fourfold
Schwann cell expansion (numbers of Schwann cells outside the DRG explant core) (embryonic DRG explants; 0.01-1 μM, 22 hours in vitro (FIG. 1B)): significant increase
growth area of outgrowing axons (embryonic DRG explants; 0.01-1 μM, 22 hours in vitro, compared to vehicle-treated cultures (FIG. 1A)): significant increase
concentration at which Schwann cell numbers were highest (embryonic DRG explants; [4]): 0.1 µM
concentration at which elevation of axonal growth areas was highest (embryonic DRG explants; [4]): 0.1 µM
BBB locomotor rating scale, treatment effect over the entire time-period of the assessment ([1]; intrathecal 100 μM, 0.5 μl/h over 14 days, ANOVA-RM p=0.013 vs vehicle (FIG. 2)): significant effect
functional recovery after severe spinal cord contusion (overall, example 2) ([1]; intrathecal treatment, rat): significantly improves functional recovery
duration of rearing attempts [2, 5]: longer in time
height reached by forepaws in rearing attempts [2, 5]: reached much higher
types of rears performed ([2]; vehicle animals only crouch or rear): able to perform standing and even reaching
BBB score at steady state ([3]; 10 mg in vehicle, vehicle animals 7.8 (FIG. 4)): 9.0
BBB score at the end of the experiment compared to vehicle controls ([3]; 10 mg, DPO 56, Students T-Test p=0.0012 (FIG. 5)): performed significantly better

From patent US20140038967A1, “NOVEL USE FOR IMIDAZOTRIAZINONES” (ALGIAX PHARMACEUTICALS GMBH, priority 2011, published 2014)
